{
  "source": "paper PMC5762315",
  "about": "“Inhibition of polo-like kinase 4 (PLK4): a new therapeutic option for rhabdoid tumors and pediatric medulloblastoma” (Oncotarget, 2017)",
  "key": {"AURKC": {"target": "AURKC (Homo sapiens, UniProt Q9UQB9)", "assay": "Kinase activity screening (SelectScreen), AURKC", "format": "biochemical", "settings": "read-out: kinase activity inhibited"}, "ROS1": {"target": "ROS1 (Homo sapiens, UniProt P08922)", "assay": "Kinase activity screening (SelectScreen), ROS1", "format": "biochemical", "settings": "ZLYTE"}, "various kinases [1]": {"target": "various kinases (Homo sapiens, UniProt P10721, D820E)", "assay": "LanthaScreen Eu Kinase Binding Assay, panel of 486 biochemical kinase assays", "settings": "KIT D820E"}, "various kinases [2]": {"target": "various kinases (Homo sapiens, UniProt P36894)", "assay": "LanthaScreen Eu Kinase Binding Assay, panel of 486 biochemical kinase assays", "settings": "BMPR1A (ALK3)"}, "various kinases [3]": {"target": "various kinases (Homo sapiens, UniProt P45983)", "assay": "LanthaScreen Eu Kinase Binding Assay, panel of 486 biochemical kinase assays", "settings": "MAPK8 (JNK1)"}, "various kinases [4]": {"target": "various kinases (Homo sapiens, UniProt P52564, S207E/T211E)", "sequence (P52564 whole entry S207E/T211E)": "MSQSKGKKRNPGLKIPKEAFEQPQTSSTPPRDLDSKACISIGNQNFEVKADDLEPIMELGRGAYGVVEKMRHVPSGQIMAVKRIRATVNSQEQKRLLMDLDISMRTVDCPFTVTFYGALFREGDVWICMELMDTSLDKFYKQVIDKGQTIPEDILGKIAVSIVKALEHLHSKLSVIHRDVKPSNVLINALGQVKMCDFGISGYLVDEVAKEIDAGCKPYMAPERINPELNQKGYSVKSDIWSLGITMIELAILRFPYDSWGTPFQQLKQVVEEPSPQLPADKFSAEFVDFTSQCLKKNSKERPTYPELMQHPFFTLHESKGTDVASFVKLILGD", "assay": "LanthaScreen Eu Kinase Binding Assay, panel of 486 biochemical kinase assays", "settings": "MAP2K6 (MKK6) S207E T211E"}, "various kinases [5]": {"target": "various kinases (Homo sapiens, UniProt P54646)", "sequence (P54646 whole entry)": "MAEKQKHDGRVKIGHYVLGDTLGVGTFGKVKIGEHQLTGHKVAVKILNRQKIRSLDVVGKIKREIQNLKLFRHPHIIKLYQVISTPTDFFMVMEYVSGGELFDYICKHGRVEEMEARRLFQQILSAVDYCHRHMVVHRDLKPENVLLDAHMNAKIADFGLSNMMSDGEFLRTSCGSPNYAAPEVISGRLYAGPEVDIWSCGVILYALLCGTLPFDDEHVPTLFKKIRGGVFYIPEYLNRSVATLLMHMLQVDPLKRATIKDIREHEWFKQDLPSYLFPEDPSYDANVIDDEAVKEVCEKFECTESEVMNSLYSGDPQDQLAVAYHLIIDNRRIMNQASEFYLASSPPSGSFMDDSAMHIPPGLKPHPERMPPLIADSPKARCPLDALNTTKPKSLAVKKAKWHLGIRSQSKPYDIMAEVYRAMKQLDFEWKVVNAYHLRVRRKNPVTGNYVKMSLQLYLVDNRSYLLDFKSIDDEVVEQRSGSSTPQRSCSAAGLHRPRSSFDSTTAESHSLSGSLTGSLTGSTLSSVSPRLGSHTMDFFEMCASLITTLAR", "assay": "LanthaScreen Eu Kinase Binding Assay, panel of 486 biochemical kinase assays"}, "various kinases [6]": {"target": "various kinases (Homo sapiens, UniProt P57059)", "sequence (P57059 whole entry)": "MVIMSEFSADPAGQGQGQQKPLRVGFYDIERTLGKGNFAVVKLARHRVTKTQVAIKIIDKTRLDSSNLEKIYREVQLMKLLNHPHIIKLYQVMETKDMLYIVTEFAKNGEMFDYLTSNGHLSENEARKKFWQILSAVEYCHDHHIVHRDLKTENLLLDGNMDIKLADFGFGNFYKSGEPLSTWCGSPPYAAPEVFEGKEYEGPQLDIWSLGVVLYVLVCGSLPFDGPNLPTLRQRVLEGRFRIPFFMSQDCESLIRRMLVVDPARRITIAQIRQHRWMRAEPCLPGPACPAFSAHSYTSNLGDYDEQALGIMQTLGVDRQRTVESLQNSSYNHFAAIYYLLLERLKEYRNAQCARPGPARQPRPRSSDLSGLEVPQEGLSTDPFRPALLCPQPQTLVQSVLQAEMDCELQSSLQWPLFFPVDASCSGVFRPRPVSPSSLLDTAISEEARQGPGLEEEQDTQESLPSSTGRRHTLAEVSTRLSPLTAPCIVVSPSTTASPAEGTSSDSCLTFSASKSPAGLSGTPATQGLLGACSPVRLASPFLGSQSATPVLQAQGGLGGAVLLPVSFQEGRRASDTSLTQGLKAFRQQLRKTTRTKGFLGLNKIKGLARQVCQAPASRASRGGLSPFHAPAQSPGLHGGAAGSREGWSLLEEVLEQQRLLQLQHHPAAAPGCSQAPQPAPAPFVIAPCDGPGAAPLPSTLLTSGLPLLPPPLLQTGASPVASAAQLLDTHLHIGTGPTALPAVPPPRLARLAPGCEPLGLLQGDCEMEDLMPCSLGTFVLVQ", "assay": "LanthaScreen Eu Kinase Binding Assay, panel of 486 biochemical kinase assays", "settings": "kinase SIK1; LanthaScreen Binding"}, "various kinases [7]": {"target": "various kinases (Homo sapiens, UniProt Q12866, A708S)", "assay": "LanthaScreen Eu Kinase Binding Assay, panel of 486 biochemical kinase assays", "settings": "MERTK (cMER) A708S"}, "various kinases [8]": {"target": "various kinases (Homo sapiens, UniProt Q15375)", "assay": "LanthaScreen Eu Kinase Binding Assay, panel of 486 biochemical kinase assays", "settings": "EPHA7"}, "various kinases [9]": {"target": "T1, various kinases (Homo sapiens, UniProt Q7L7X3)", "T1 sequence (Q7L7X3 1-1001)": "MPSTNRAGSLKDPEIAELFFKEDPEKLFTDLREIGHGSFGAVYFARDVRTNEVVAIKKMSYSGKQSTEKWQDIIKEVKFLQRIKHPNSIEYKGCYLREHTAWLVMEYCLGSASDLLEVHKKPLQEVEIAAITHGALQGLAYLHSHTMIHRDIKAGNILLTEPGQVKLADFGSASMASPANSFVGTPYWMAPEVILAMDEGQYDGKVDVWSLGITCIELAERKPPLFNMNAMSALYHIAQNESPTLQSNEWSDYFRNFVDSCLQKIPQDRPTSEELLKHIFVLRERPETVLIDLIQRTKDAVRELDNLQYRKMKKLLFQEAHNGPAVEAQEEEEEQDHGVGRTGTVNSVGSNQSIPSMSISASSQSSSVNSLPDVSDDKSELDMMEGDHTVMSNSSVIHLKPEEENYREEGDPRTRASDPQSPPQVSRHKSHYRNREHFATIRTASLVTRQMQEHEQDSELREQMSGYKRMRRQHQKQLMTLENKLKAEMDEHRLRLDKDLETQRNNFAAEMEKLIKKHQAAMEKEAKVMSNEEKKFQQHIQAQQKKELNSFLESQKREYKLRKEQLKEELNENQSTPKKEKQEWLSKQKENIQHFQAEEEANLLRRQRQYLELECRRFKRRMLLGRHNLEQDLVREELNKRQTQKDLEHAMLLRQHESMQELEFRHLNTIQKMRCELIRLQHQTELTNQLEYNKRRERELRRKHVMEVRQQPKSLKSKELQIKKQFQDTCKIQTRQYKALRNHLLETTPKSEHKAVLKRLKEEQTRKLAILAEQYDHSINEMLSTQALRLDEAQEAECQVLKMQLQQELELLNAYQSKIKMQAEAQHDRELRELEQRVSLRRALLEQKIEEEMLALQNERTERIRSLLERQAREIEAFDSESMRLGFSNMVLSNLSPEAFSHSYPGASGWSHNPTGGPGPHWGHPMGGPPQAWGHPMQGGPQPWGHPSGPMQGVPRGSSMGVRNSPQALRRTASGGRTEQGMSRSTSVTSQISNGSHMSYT", "assay": "LanthaScreen Eu Kinase Binding Assay, panel of 486 biochemical kinase assays", "settings": "kinase TAOK1; LanthaScreen Binding"}, "various kinases [10]": {"target": "various kinases (Homo sapiens, UniProt Q86YV6)", "sequence (Q86YV6 whole entry)": "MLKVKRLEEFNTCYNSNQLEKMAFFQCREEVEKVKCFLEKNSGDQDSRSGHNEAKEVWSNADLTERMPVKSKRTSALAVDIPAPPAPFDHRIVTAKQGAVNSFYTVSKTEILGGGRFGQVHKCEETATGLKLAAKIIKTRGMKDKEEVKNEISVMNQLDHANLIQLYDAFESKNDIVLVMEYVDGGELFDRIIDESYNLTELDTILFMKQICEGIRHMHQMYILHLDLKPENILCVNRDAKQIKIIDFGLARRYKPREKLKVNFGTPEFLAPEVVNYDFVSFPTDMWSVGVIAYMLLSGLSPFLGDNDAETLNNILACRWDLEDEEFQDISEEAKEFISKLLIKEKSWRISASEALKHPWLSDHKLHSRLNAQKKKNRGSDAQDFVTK", "assay": "LanthaScreen Eu Kinase Binding Assay, panel of 486 biochemical kinase assays", "settings": "MYLK4"}, "various kinases [11]": {"target": "various kinases (Homo sapiens, UniProt Q8IVH8)", "assay": "LanthaScreen Eu Kinase Binding Assay, panel of 486 biochemical kinase assays", "settings": "MAP4K3 (GLK)"}, "various kinases [12]": {"target": "various kinases (Homo sapiens, UniProt Q99558)", "assay": "LanthaScreen Eu Kinase Binding Assay, panel of 486 biochemical kinase assays", "settings": "MAP3K14 (NIK)"}, "various kinases [13]": {"target": "various kinases (Homo sapiens, UniProt Q99683)", "assay": "LanthaScreen Eu Kinase Binding Assay, panel of 486 biochemical kinase assays", "settings": "MAP3K5 (ASK1)"}, "various kinases [14]": {"target": "various kinases (Homo sapiens, UniProt Q9BYP7)", "sequence (Q9BYP7 whole entry)": "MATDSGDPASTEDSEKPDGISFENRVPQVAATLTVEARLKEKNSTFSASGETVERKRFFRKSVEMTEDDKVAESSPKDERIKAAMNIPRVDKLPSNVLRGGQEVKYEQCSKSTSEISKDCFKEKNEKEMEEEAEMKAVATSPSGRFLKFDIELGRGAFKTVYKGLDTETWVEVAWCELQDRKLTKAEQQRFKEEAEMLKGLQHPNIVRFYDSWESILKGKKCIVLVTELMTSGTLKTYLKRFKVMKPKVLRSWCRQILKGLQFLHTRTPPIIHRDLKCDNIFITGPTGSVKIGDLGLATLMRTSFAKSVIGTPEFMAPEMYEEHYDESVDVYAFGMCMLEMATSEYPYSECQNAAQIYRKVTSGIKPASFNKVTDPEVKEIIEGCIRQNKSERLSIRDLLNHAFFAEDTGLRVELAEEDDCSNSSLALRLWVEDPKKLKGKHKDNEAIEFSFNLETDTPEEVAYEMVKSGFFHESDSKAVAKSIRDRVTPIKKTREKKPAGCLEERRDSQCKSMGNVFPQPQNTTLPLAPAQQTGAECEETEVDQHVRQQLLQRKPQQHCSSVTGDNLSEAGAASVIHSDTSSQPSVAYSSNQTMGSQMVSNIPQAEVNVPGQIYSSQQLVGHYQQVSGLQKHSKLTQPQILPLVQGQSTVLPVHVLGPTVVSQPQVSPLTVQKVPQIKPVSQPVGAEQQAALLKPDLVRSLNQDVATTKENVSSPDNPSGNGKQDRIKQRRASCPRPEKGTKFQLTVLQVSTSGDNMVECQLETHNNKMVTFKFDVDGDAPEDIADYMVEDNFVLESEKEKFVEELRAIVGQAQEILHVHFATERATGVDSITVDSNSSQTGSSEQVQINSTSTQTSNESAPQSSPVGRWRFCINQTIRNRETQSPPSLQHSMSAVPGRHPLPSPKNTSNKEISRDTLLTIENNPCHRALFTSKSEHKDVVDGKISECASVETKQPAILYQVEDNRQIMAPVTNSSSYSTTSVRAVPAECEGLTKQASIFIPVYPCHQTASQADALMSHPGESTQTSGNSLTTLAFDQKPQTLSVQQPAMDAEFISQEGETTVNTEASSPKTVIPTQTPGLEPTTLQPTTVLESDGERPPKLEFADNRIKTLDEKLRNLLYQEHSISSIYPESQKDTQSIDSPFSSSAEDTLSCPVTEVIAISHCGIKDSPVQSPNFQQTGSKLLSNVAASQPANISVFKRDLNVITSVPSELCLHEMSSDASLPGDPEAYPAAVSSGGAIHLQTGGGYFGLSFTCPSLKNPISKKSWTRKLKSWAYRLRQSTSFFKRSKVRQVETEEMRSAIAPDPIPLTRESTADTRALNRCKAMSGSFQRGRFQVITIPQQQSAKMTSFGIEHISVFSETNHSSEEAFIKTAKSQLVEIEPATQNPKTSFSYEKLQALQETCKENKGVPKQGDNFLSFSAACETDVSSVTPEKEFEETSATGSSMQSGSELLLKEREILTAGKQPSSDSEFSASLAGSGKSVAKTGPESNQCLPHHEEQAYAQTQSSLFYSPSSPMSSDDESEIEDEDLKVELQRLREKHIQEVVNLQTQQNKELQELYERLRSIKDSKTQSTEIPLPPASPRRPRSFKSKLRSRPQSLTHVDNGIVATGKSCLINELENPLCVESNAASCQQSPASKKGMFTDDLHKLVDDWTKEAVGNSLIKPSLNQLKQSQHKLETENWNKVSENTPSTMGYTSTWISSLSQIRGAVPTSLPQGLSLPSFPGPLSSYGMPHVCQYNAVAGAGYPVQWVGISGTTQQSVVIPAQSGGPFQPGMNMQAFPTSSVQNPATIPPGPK", "assay": "LanthaScreen Eu Kinase Binding Assay, panel of 486 biochemical kinase assays", "settings": "kinase WNK3; LanthaScreen Binding"}, "various kinases [15]": {"target": "various kinases (Homo sapiens, UniProt Q9H093)", "assay": "LanthaScreen Eu Kinase Binding Assay, panel of 486 biochemical kinase assays", "settings": "NUAK2"}, "various kinases [16]": {"target": "various kinases (Homo sapiens, UniProt Q9NY57)", "sequence (Q9NY57 whole entry)": "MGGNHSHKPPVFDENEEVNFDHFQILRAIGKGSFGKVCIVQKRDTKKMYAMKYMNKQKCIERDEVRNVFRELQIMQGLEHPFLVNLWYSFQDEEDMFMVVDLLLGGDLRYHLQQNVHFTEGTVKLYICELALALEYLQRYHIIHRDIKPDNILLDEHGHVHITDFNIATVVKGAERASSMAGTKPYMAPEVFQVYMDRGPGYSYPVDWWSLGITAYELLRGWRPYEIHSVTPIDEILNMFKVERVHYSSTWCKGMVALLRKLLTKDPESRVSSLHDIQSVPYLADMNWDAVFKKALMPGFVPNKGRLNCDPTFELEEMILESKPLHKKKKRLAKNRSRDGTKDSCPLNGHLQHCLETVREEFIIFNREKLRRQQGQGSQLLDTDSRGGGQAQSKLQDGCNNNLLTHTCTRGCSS", "assay": "LanthaScreen Eu Kinase Binding Assay, panel of 486 biochemical kinase assays", "settings": "kinase STK32B (YANK2); LanthaScreen Binding"}, "various kinases [17]": {"target": "various kinases (Homo sapiens, UniProt Q9NYL2)", "sequence (Q9NYL2 whole entry)": "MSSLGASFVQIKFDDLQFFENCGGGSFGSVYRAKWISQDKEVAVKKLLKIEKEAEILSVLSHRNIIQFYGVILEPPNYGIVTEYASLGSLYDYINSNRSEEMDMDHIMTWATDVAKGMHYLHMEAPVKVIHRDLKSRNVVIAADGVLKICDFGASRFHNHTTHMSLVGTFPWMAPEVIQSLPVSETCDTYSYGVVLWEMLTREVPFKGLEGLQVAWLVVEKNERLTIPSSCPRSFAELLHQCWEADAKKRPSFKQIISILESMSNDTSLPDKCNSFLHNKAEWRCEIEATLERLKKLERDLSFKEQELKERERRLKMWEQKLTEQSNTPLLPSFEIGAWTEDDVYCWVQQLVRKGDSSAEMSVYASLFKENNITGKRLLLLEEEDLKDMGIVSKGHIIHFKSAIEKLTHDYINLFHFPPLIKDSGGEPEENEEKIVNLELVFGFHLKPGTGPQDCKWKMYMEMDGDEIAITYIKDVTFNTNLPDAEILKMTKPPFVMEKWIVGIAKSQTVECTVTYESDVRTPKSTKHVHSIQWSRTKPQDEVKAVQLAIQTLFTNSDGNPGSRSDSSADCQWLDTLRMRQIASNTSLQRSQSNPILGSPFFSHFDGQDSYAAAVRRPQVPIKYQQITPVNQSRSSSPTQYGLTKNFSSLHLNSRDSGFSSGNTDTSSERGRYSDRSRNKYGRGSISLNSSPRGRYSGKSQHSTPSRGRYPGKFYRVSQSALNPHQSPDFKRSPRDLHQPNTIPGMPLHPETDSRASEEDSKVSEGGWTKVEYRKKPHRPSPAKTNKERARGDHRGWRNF", "assay": "LanthaScreen Eu Kinase Binding Assay, panel of 486 biochemical kinase assays", "settings": "kinase ZAK; LanthaScreen Binding"}, "various kinases [18]": {"target": "various kinases (Homo sapiens, UniProt Q9UF33)", "assay": "LanthaScreen Eu Kinase Binding Assay, panel of 486 biochemical kinase assays", "settings": "EPHA6"}, "[19]": {"system": "MON, G401, BT-12 and BT-16 rhabdoid cell lines", "assay": "Flow cytometry apoptosis (Annexin V / PI)", "format": "cell-based, human", "settings": "G401, BT-12, BT-16, 100nM for 48 hours", "method": "Live cells were stained with Annexin V as an indicator of early apoptosis and Propidium Iodide (PI - Thermo Fisher Scientific, USA) for detection of late apoptosis and necrosis, according to manufacturer’s instructions (Thermo Fisher Scientific, USA). Flow cytometric analysis was performed on a BD Fortessa instrument (BD Biosciences, USA) within an hour of staining. Data was analyzed using Modfit LT from Verity Software House. All experiments were performed in triplicates."}, "[20]": {"system": "G401, BT-16, DAOY and D283 cell lines", "assay": "Flow cytometry cell cycle analysis (polyploidy), other RT and MB lines", "format": "cell-based, human", "settings": "100nM for 48 hours", "method": "Cell cycle evaluation was performed by staining the cells with PI (Thermo Fisher Scientific, USA) according to manufacturer’s instructions. […] Data was analyzed using Modfit LT from Verity Software House. Experiments were performed in triplicates."}},
  "note": "“And” between values parts separate entries of the source, which are not always exact repeats. Equal entries are not always repeated.",
  "data": [
    {"smiles": "COc1ccc2c(c1)[C@]1(C[C@H]1c1ccc3c(/C=C/c4ccc(CN5C[C@@H](C)O[C@@H](C)C5)cc4)n[nH]c3c1)C(=O)N2", "note": "[CFI-400945]", "values": [
      {"measurement": "inhibition at 0.5 µM", "setting": "AURKC", "value": 84, "unit": "%"},
      {"measurement": "% Inhibition Duplicate #1", "setting": "ROS1", "value": 99, "unit": "%"},
      {"measurement": "% Inhibition", "setting": "various kinases [1]", "value": "3% and 4%"},
      {"measurement": "% Inhibition", "setting": "various kinases [2]", "value": "-4% and 3%"},
      {"measurement": "% Inhibition", "setting": "various kinases [3]", "value": "0% and -1%"},
      {"measurement": "% Inhibition", "setting": "various kinases [4]", "value": "9% and 8%"},
      {"measurement": "% Inhibition", "setting": "various kinases [5]; AMPK (A2/B2/G1)", "value": "14% and 19%"},
      {"measurement": "% Inhibition", "setting": "various kinases [5]; AMPK (A2/B2/G2)", "value": "14% and 12%"},
      {"measurement": "% Inhibition Average", "setting": "various kinases [6]", "value": 6, "unit": "%"},
      {"measurement": "% Inhibition Duplicate #1", "setting": "various kinases [6]", "value": 5, "unit": "%"},
      {"measurement": "% Inhibition Duplicate #2", "setting": "various kinases [6]", "value": 6, "unit": "%"},
      {"measurement": "% Inhibition", "setting": "various kinases [7]", "value": "7% and 2%"},
      {"measurement": "% Inhibition", "setting": "various kinases [8]", "value": "-4% and 5%"},
      {"measurement": "% Inhibition Average", "setting": "various kinases [9]", "value": 14, "unit": "%"},
      {"measurement": "% Inhibition Duplicate #1", "setting": "various kinases [9]", "value": 15, "unit": "%"},
      {"measurement": "% Inhibition Duplicate #2", "setting": "various kinases [9]", "value": 13, "unit": "%"},
      {"measurement": "% Inhibition", "setting": "various kinases [10]", "value": "7% and 13%"},
      {"measurement": "% Inhibition", "setting": "various kinases [11]", "value": "23% and 19%"},
      {"measurement": "% Inhibition", "setting": "various kinases [12]", "value": "0% and 1%"},
      {"measurement": "% Inhibition", "setting": "various kinases [13]", "value": "-6% and -3%"},
      {"measurement": "% Inhibition Average", "setting": "various kinases [14]", "value": -2, "unit": "%"},
      {"measurement": "% Inhibition Duplicate #1", "setting": "various kinases [14]", "value": -2, "unit": "%"},
      {"measurement": "% Inhibition Duplicate #2", "setting": "various kinases [14]", "value": -1, "unit": "%"},
      {"measurement": "% Inhibition", "setting": "various kinases [15]", "value": "44% and 36%"},
      {"measurement": "% Inhibition Average", "setting": "various kinases [16]", "value": 4, "unit": "%"},
      {"measurement": "% Inhibition Duplicate #1", "setting": "various kinases [16]", "value": -1, "unit": "%"},
      {"measurement": "% Inhibition Duplicate #2", "setting": "various kinases [16]", "value": 9, "unit": "%"},
      {"measurement": "% Inhibition Average", "setting": "various kinases [17]", "value": -1, "unit": "%"},
      {"measurement": "% Inhibition Duplicate #1", "setting": "various kinases [17]", "value": -1, "unit": "%"},
      {"measurement": "% Inhibition Duplicate #2", "setting": "various kinases [17]", "value": -1, "unit": "%"},
      {"measurement": "% Inhibition", "setting": "various kinases [18]", "value": "18% and 24%"},
      {"measurement": "cell death (apoptosis, flow cytometry) vs control", "setting": "[19]", "value": "significantly higher percentage of cells undergoing cell death"},
      {"measurement": "polyploidy (cell cycle analysis)", "setting": "[20]", "value": "extreme polyploidy"}
    ]}
  ]
}
